For data set [1] the following is noted: after 6 months at room temperature; cited from earlier work.
Data set [2] is described as follows: Solubility of SNAP in silicone oil. The note with it: oil or lipid, thermodynamic from solid. It counts as physicochemical. How it is done: Leaching of SNAP from the silicone tubing was repeated during the oil swelling process as well, to ensure large amounts of SNAP were not lost during the 3-day swelling period. Sections of SNAP impregnated tubing were massed and placed in 4 mL of silicone oil. The absorbance spectra of silicone oil were taken to ensure no interference would be seen between the SNAP maxima and the oil. […] Therefore, the same calibration curve of SNAP in PBS-EDTA was used for determining SNAP concentration in the silicone oil. Solubility of SNAP in silicone oil was determined by adding 10 mg/mL and put on a vortex mixer for 2 min. The suspension was then centrifuged (10 min, 3000 rpm), and a 1 mL sample of the silicone oil was taken for UV vis spectroscopy.

SMILES strings stand for the structures. Values after ≈ are worked out from the molar mass of the structure shown.

Broadly, the solubility is the concentration that dissolves in the medium under given conditions. Read a low solubility as little dissolved substance. Take `CC(=O)N[C@@H](C(=O)O)C(C)(C)SN=O` (racemic) [SNAP, S-nitroso-N-acetylpenicillamine]: in data set [1], the “SNAP activity retained within a polymer matrix” value is listed as 87%. The solubility at 2 min in data set [2] is 0.4 µg/mL (≈ 1.82 µM).

The values are drawn from patent US12016974B2, “Nitric oxide releasing surfaces for decreased fouling, thrombosis, and infection of medical devices” (priority 2016, dated 2024).
